Source: PubChem BioAssay AID2060602 (Molecular Pharmacology Branch, DTP, NCI, 2025)

Test system: 648629-189-R-J1-PDC complex spheroids viability
Experiment: Anticancer human tumor 648629-189-R-J1-PDC patient-derived bladder carcinoma cell line growth inhibition [CLK]
Conditions: for IC50: curve of first compound; for viability, T/C: stronger effect = lower value
Outline: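 Patient-derived tumor cells grown as complex spheroids with HUVEC endothelial cells and mesenchymal stem cells, treated with drug combinations. Concentrations descend in half-log steps from near clinical Cmax, or from 10 microM if Cmax unknown.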
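Wherever viability, T/C is given: drug exposure lasted seven days before viability readout; 100% = DMSO vehicle control wells.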

For `CC1(C)CCC(CN2CCN(c3ccc(C(=O)NS(=O)(=O)c4ccc(NCC5CCOCC5)c([N+](=O)[O-])c4)c(Oc4cnc5[nH]ccc5c4)c3)CC2)=C(c2ccc(Cl)cc2)C1` + CN1CCN(c2cc(C(=O)Nc3cc4cc(-c5cnn(C)c5)ccc4cn3)ccn2)CC1, the IC50 (second compound 0.0316 µM) was greater than 10000 nM, the IC50 (second compound 0.1 µM) was greater than 10000 nM and the IC50 (second compound 0.316 µM) was less than 31.6 nM. It also gave an IC50 (second compound 1 µM) of less than 31.6 nM, an IC50 (second compound 3.16 µM) of less than 31.6 nM and an IC50 (second compound 10 µM) of less than 31.6 nM. For the same molecule, the viability, T/C (second compound 0.0316 µM, first compound 0.0316 µM) was 114%, the viability, T/C (second compound 0.0316 µM, first compound 0.1 µM) was 112% and the viability, T/C (second compound 0.0316 µM, first compound 0.316 µM) was 110%. It also gave a viability, T/C (second compound 0.0316 µM, first compound 1 µM) of 97.4%, a viability, T/C (second compound 0.0316 µM, first compound 3.16 µM) of 86.2% and a viability, T/C (second compound 0.0316 µM, first compound 10 µM) of 66.6%. It also gave a viability, T/C (second compound 0.1 µM, first compound 0.0316 µM) of 112%, a viability, T/C (second compound 0.1 µM, first compound 0.1 µM) of 116% and a viability, T/C (second compound 0.1 µM, first compound 0.316 µM) of 97.4%. It also gave a viability, T/C (second compound 0.1 µM, first compound 1 µM) of 107%, a viability, T/C (second compound 0.1 µM, first compound 3.16 µM) of 91.8% and a viability, T/C (second compound 0.1 µM, first compound 10 µM) of 56.1%. The viability, T/C (second compound 0.316 µM, first compound 0.0316 µM) was 37%, the viability, T/C (second compound 0.316 µM, first compound 0.1 µM) was 52% and the viability, T/C (second compound 0.316 µM, first compound 0.316 µM) was 41.4%. It also gave a viability, T/C (second compound 0.316 µM, first compound 1 µM) of 47.8%, a viability, T/C (second compound 0.316 µM, first compound 3.16 µM) of 35.7% and a viability, T/C (second compound 0.316 µM, first compound 10 µM) of 24.2%. It also gave a viability, T/C (second compound 1 µM, first compound 0.0316 µM) of 0.21%, a viability, T/C (second compound 1 µM, first compound 0.1 µM) of 0.41% and a viability, T/C (second compound 1 µM, first compound 0.316 µM) of 0.38%. It also gave a viability, T/C (second compound 1 µM, first compound 1 µM) of 0.27%, a viability, T/C (second compound 1 µM, first compound 3.16 µM) of 0.36% and a viability, T/C (second compound 1 µM, first compound 10 µM) of 1.01%. It also gave a viability, T/C (second compound 3.16 µM, first compound 0.0316 µM) of 0.1%, a viability, T/C (second compound 3.16 µM, first compound 0.1 µM) of 0.35% and a viability, T/C (second compound 3.16 µM, first compound 0.316 µM) of 0.14%. It also gave a viability, T/C (second compound 3.16 µM, first compound 1 µM) of 0.13%, a viability, T/C (second compound 3.16 µM, first compound 3.16 µM) of 0.12% and a viability, T/C (second compound 3.16 µM, first compound 10 µM) of 0.7%. It also gave a viability, T/C (second compound 10 µM, first compound 0.0316 µM) of 0.13%, a viability, T/C (second compound 10 µM, first compound 0.1 µM) of 0.17% and a viability, T/C (second compound 10 µM, first compound 0.316 µM) of 0.16%. For the same molecule, the viability, T/C (second compound 10 µM, first compound 1 µM) was 0.54%, the viability, T/C (second compound 10 µM, first compound 3.16 µM) was 0.17% and the viability, T/C (second compound 10 µM, first compound 10 µM) was 0.16%.

With `CC(C)CC(NC(=O)C(Cc1ccccc1)NC(=O)c1cnccn1)B(O)O` (centres undefined) + CNC(=O)c1ccc(Nc2nc(OC3CCCC3)c3c(-c4ccc5nc(C)oc5c4)c[nH]c3n2)c(OC)c1 the IC50 (second compound 0.0316 µM) was 3.04 nM, the IC50 (second compound 0.1 µM) was 2.21 nM and the IC50 (second compound 0.316 µM) was less than 0.949 nM. It also gave an IC50 (second compound 1 µM) of less than 0.949 nM, an IC50 (second compound 3.16 µM) of less than 0.949 nM and an IC50 (second compound 10 µM) of less than 0.949 nM. It also gave a viability, T/C (second compound 0.0316 µM, first compound 0.000949 µM) of 105%, a viability, T/C (second compound 0.0316 µM, first compound 0.003 µM) of 50.5% and a viability, T/C (second compound 0.0316 µM, first compound 0.00949 µM) of 1.99%. The viability, T/C (second compound 0.0316 µM, first compound 0.03 µM) was 0.26%, the viability, T/C (second compound 0.0316 µM, first compound 0.0949 µM) was 0.18% and the viability, T/C (second compound 0.0316 µM, first compound 0.3 µM) was 1.59%. For the same molecule, the viability, T/C (second compound 0.1 µM, first compound 0.000949 µM) was 91.4%, the viability, T/C (second compound 0.1 µM, first compound 0.003 µM) was 35% and the viability, T/C (second compound 0.1 µM, first compound 0.00949 µM) was 0.64%. It also gave a viability, T/C (second compound 0.1 µM, first compound 0.03 µM) of 0.21%, a viability, T/C (second compound 0.1 µM, first compound 0.0949 µM) of 0.15% and a viability, T/C (second compound 0.1 µM, first compound 0.3 µM) of 1.03%. For the same molecule, the viability, T/C (second compound 0.316 µM, first compound 0.000949 µM) was 34.9%, the viability, T/C (second compound 0.316 µM, first compound 0.003 µM) was 35% and the viability, T/C (second compound 0.316 µM, first compound 0.00949 µM) was 0.45%. For the same molecule, the viability, T/C (second compound 0.316 µM, first compound 0.03 µM) was 0.28%, the viability, T/C (second compound 0.316 µM, first compound 0.0949 µM) was 0.76% and the viability, T/C (second compound 0.316 µM, first compound 0.3 µM) was 0.16%. It also gave a viability, T/C (second compound 1 µM, first compound 0.000949 µM) of 23.6%, a viability, T/C (second compound 1 µM, first compound 0.003 µM) of 24.1% and a viability, T/C (second compound 1 µM, first compound 0.00949 µM) of 2.18%. The viability, T/C (second compound 1 µM, first compound 0.03 µM) was 0.36%, the viability, T/C (second compound 1 µM, first compound 0.0949 µM) was 0.34% and the viability, T/C (second compound 1 µM, first compound 0.3 µM) was 1.9%. It also gave a viability, T/C (second compound 3.16 µM, first compound 0.000949 µM) of 28.1%, a viability, T/C (second compound 3.16 µM, first compound 0.003 µM) of 9.77% and a viability, T/C (second compound 3.16 µM, first compound 0.00949 µM) of 3.72%. For the same molecule, the viability, T/C (second compound 3.16 µM, first compound 0.03 µM) was 0.62%, the viability, T/C (second compound 3.16 µM, first compound 0.0949 µM) was 1.49% and the viability, T/C (second compound 3.16 µM, first compound 0.3 µM) was 0.23%. The viability, T/C (second compound 10 µM, first compound 0.000949 µM) was 24.2%, the viability, T/C (second compound 10 µM, first compound 0.003 µM) was 14.2% and the viability, T/C (second compound 10 µM, first compound 0.00949 µM) was 1.91%. It also gave a viability, T/C (second compound 10 µM, first compound 0.03 µM) of 0.53%, a viability, T/C (second compound 10 µM, first compound 0.0949 µM) of 1.61% and a viability, T/C (second compound 10 µM, first compound 0.3 µM) of 1.49%.
